Experimental data as given in ChEMBL document CHEMBL3885881, “DrugMatrix”.

Species on record: Rattus norvegicus
Experiment: DrugMatrix - Regimen: Daily Repeat
Type: toxicity, organism-based, Sprague-Dawley
Parameters: regimen Daily Repeat, gender Male, age 6-8 weeks
Settings: in vivo, po, route oral GAVAGE, vehicle .5 % CMC; for ABSOLUTE BASOPHIL / BASOPHIL / EOSINOPHIL / ERYTHROCYTE COUNT / HEMATOCRIT / HEMOGLOBIN / LEUKOCYTE COUNT / LYMPHOCYTE / MEAN CORPUSCULAR HEMOGLOBIN / MEAN CORPUSCULAR HEMOGLOBIN CONCENTRATION / MEAN CORPUSCULAR VOLUME / MONOCYTE / NEUTROPHIL / PLATELET COUNT: tissue Blood; for ALANINE AMINOTRANSFERASE / ALKALINE PHOSPHATASE / ASPARTATE AMINOTRANSFERASE / BLOOD UREA NITROGEN / CHLORIDE / CHOLESTEROL / CREATINE PHOSPHOKINASE / CREATININE / GLUCOSE / PHOSPHORUS / POTASSIUM / SODIUM / TOTAL BILIRUBIN / TOTAL PROTEIN: tissue Plasma
[1] = 0 mg/kg, 72 h, dose level Control, time 3 day
[2] = 0 mg/kg, 120 h, dose level Control, time 5 day
[3] = 32 mg/kg, 72 h, dose level Low, time 3 day
[4] = 32 mg/kg, 120 h, dose level Low, time 5 day
[5] = 320 mg/kg, 72 h, dose level High, time 3 day
[6] = 320 mg/kg, 120 h, dose level High, time 5 day

Compound: C1CCC(C(CC2CCCCN2)C2CCCCC2)CC1 (stereo not drawn) [PERHEXILINE]
- ABSOLUTE BASOPHIL [1]: 16.7 cells/µL
- BASOPHIL [1]: 0.17%
- EOSINOPHIL [1]: 0.62%
- ERYTHROCYTE COUNT [1]: 6.55 x10E6/uL
- HEMATOCRIT [1]: 42%
- HEMOGLOBIN [1]: 13.48 G/DL
- LEUKOCYTE COUNT [1]: 8.79 x10E3/uL
- LYMPHOCYTE [1]: 76.98%
- MEAN CORPUSCULAR HEMOGLOBIN [1]: 20.57 pg
- MEAN CORPUSCULAR HEMOGLOBIN CONCENTRATION [1]: 32.08 G/DL
- MEAN CORPUSCULAR VOLUME [1]: 64.1 fL
- MONOCYTE [1]: 2.12%
- NEUTROPHIL [1]: 19%
- PLATELET COUNT [1]: 1432.17 x10E3/uL
- ALANINE AMINOTRANSFERASE [1]: 42.83 u/L
- ALKALINE PHOSPHATASE [1]: 328.5 u/L
- ASPARTATE AMINOTRANSFERASE [1]: 78.33 u/L
- BLOOD UREA NITROGEN [1]: 14.5 mg/dL
- CHLORIDE [1]: 104.5 MEQ/L
- CHOLESTEROL [1]: 78.67 mg/dL
- CREATINE PHOSPHOKINASE [1]: 282.33 u/L
- CREATININE [1]: 0.25 mg/dL
- GLUCOSE [1]: 173.67 mg/dL
- PHOSPHORUS [1]: 12.83 mg/dL
- POTASSIUM [1]: 6.7 MEQ/L
- SODIUM [1]: 145.83 MEQ/L
- TOTAL BILIRUBIN [1]: 0.4 mg/dL
- TOTAL PROTEIN [1]: 5.93 G/DL
- ABSOLUTE BASOPHIL [2]: 28 cells/µL
- BASOPHIL [2]: 0.26%
- EOSINOPHIL [2]: 0.44%
- ERYTHROCYTE COUNT [2]: 6.99 x10E6/uL
- HEMATOCRIT [2]: 45.12%
- HEMOGLOBIN [2]: 14.26 G/DL
- LEUKOCYTE COUNT [2]: 9.42 x10E3/uL
- LYMPHOCYTE [2]: 79.92%
- MEAN CORPUSCULAR HEMOGLOBIN [2]: 20.44 pg
- MEAN CORPUSCULAR HEMOGLOBIN CONCENTRATION [2]: 31.62 G/DL
- MEAN CORPUSCULAR VOLUME [2]: 64.6 fL
- MONOCYTE [2]: 2.2%
- NEUTROPHIL [2]: 16.14%
- PLATELET COUNT [2]: 1062.2 x10E3/uL
- ALANINE AMINOTRANSFERASE [2]: 44 u/L
- ALKALINE PHOSPHATASE [2]: 342.6 u/L
- ASPARTATE AMINOTRANSFERASE [2]: 74.17 u/L
- BLOOD UREA NITROGEN [2]: 13 mg/dL
- CHLORIDE [2]: 103 MEQ/L
- CHOLESTEROL [2]: 72.83 mg/dL
- CREATINE PHOSPHOKINASE [2]: 184.67 u/L
- CREATININE [2]: 0.47 mg/dL
- GLUCOSE [2]: 168.17 mg/dL
- PHOSPHORUS [2]: 12.27 mg/dL
- POTASSIUM [2]: 6.98 MEQ/L
- SODIUM [2]: 147 MEQ/L
- TOTAL BILIRUBIN [2]: 0.65 mg/dL
- TOTAL PROTEIN [2]: 6.23 G/DL
- ABSOLUTE BASOPHIL [3]: 20 cells/µL
- BASOPHIL [3]: 0.17%
- EOSINOPHIL [3]: 0.47%
- ERYTHROCYTE COUNT [3]: 6.84 x10E6/uL
- HEMATOCRIT [3]: 42.07%
- HEMOGLOBIN [3]: 13.8 G/DL
- LEUKOCYTE COUNT [3]: 11 x10E3/uL
- LYMPHOCYTE [3]: 83.1%
- MEAN CORPUSCULAR HEMOGLOBIN [3]: 20.2 pg
- MEAN CORPUSCULAR HEMOGLOBIN CONCENTRATION [3]: 32.8 G/DL
- MEAN CORPUSCULAR VOLUME [3]: 61.57 fL
- MONOCYTE [3]: 1.9%
- NEUTROPHIL [3]: 12.83%
- PLATELET COUNT [3]: 1282.33 x10E3/uL
- ALANINE AMINOTRANSFERASE [3]: 33.33 u/L
- ALKALINE PHOSPHATASE [3]: 346 u/L
- ASPARTATE AMINOTRANSFERASE [3]: 61 u/L
- BLOOD UREA NITROGEN [3]: 11.67 mg/dL
- CHLORIDE [3]: 104.33 MEQ/L
- CHOLESTEROL [3]: 65.33 mg/dL
- CREATINE PHOSPHOKINASE [3]: 229 u/L
- CREATININE [3]: 0.37 mg/dL
- GLUCOSE [3]: 183.67 mg/dL
- PHOSPHORUS [3]: 13.7 mg/dL
- POTASSIUM [3]: 6.87 MEQ/L
- SODIUM [3]: 145.33 MEQ/L
- TOTAL BILIRUBIN [3]: 0.3 mg/dL
- TOTAL PROTEIN [3]: 5.73 G/DL
- ABSOLUTE BASOPHIL [4]: 150 cells/µL
- BASOPHIL [4]: 1.2%
- EOSINOPHIL [4]: 0.5%
- ERYTHROCYTE COUNT [4]: 7.42 x10E6/uL
- HEMATOCRIT [4]: 47.53%
- HEMOGLOBIN [4]: 15.03 G/DL
- LEUKOCYTE COUNT [4]: 12.21 x10E3/uL
- LYMPHOCYTE [4]: 82.57%
- MEAN CORPUSCULAR HEMOGLOBIN [4]: 20.33 pg
- MEAN CORPUSCULAR HEMOGLOBIN CONCENTRATION [4]: 31.7 G/DL
- MEAN CORPUSCULAR VOLUME [4]: 64.2 fL
- MONOCYTE [4]: 2.13%
- NEUTROPHIL [4]: 12.7%
- PLATELET COUNT [4]: 1404 x10E3/uL
- ALANINE AMINOTRANSFERASE [4]: 34.33 u/L
- ALKALINE PHOSPHATASE [4]: 375.33 u/L
- ASPARTATE AMINOTRANSFERASE [4]: 68.33 u/L
- BLOOD UREA NITROGEN [4]: 11.33 mg/dL
- CHLORIDE [4]: 102 MEQ/L
- CHOLESTEROL [4]: 67 mg/dL
- CREATINE PHOSPHOKINASE [4]: 206.67 u/L
- CREATININE [4]: 0.3 mg/dL
- GLUCOSE [4]: 187 mg/dL
- PHOSPHORUS [4]: 12.13 mg/dL
- POTASSIUM [4]: 6.8 MEQ/L
- SODIUM [4]: 149.67 MEQ/L
- TOTAL BILIRUBIN [4]: 0.3 mg/dL
- TOTAL PROTEIN [4]: 6.4 G/DL
- ABSOLUTE BASOPHIL [5]: 33.3 cells/µL
- BASOPHIL [5]: 0.33%
- EOSINOPHIL [5]: 0.4%
- ERYTHROCYTE COUNT [5]: 7.33 x10E6/uL
- HEMATOCRIT [5]: 45.27%
- HEMOGLOBIN [5]: 14.7 G/DL
- LEUKOCYTE COUNT [5]: 9.79 x10E3/uL
- LYMPHOCYTE [5]: 79.33%
- MEAN CORPUSCULAR HEMOGLOBIN [5]: 20.1 pg
- MEAN CORPUSCULAR HEMOGLOBIN CONCENTRATION [5]: 32.53 G/DL
- MEAN CORPUSCULAR VOLUME [5]: 61.77 fL
- MONOCYTE [5]: 1.37%
- NEUTROPHIL [5]: 17.17%
- PLATELET COUNT [5]: 1599 x10E3/uL
- ALANINE AMINOTRANSFERASE [5]: 47 u/L
- ALKALINE PHOSPHATASE [5]: 318.5 u/L
- ASPARTATE AMINOTRANSFERASE [5]: 61.67 u/L
- BLOOD UREA NITROGEN [5]: 9.67 mg/dL
- CHLORIDE [5]: 102.33 MEQ/L
- CHOLESTEROL [5]: 74 mg/dL
- CREATINE PHOSPHOKINASE [5]: 199.67 u/L
- CREATININE [5]: 0.33 mg/dL
- GLUCOSE [5]: 167 mg/dL
- PHOSPHORUS [5]: 14.17 mg/dL
- POTASSIUM [5]: 6.63 MEQ/L
- SODIUM [5]: 146.33 MEQ/L
- TOTAL BILIRUBIN [5]: 0.33 mg/dL
- TOTAL PROTEIN [5]: 6 G/DL
- ABSOLUTE BASOPHIL [6]: 50 cells/µL
- BASOPHIL [6]: 0.5%
- EOSINOPHIL [6]: 0.34%
- ERYTHROCYTE COUNT [6]: 7.26 x10E6/uL
- HEMATOCRIT [6]: 45.84%
- HEMOGLOBIN [6]: 14.82 G/DL
- LEUKOCYTE COUNT [6]: 10.17 x10E3/uL
- LYMPHOCYTE [6]: 80.92%
- MEAN CORPUSCULAR HEMOGLOBIN [6]: 20.46 pg
- MEAN CORPUSCULAR HEMOGLOBIN CONCENTRATION [6]: 32.36 G/DL
- MEAN CORPUSCULAR VOLUME [6]: 63.26 fL
- MONOCYTE [6]: 1.18%
- NEUTROPHIL [6]: 16.4%
- PLATELET COUNT [6]: 1254 x10E3/uL
- ALANINE AMINOTRANSFERASE [6]: 48.8 u/L
- ALKALINE PHOSPHATASE [6]: 300.75 u/L
- ASPARTATE AMINOTRANSFERASE [6]: 75.6 u/L
- BLOOD UREA NITROGEN [6]: 12.2 mg/dL
- CHLORIDE [6]: 102.2 MEQ/L
- CHOLESTEROL [6]: 68.6 mg/dL
- CREATINE PHOSPHOKINASE [6]: 173.4 u/L
- CREATININE [6]: 0.36 mg/dL
- GLUCOSE [6]: 186.4 mg/dL
- PHOSPHORUS [6]: 13.36 mg/dL
- POTASSIUM [6]: 6.38 MEQ/L
- SODIUM [6]: 146.8 MEQ/L
- TOTAL BILIRUBIN [6]: 0.28 mg/dL
- TOTAL PROTEIN [6]: 5.88 G/DL
